Laboratory results taken from US5025024A, “Therapeutically active fluoro-substituted compound” (priority 1988, dated 1991).

Assays:
[1] = Bioavailability in the Male Rat (AUC method); format: in vivo, male rats of the Sprague-Dawley strain; conditions: id vs iv, 4 μmol/kg; for bioavailability: blood, 4 umol/kg, read-out: Bioavailability measured by the AUC-method, F %, Rat
Excerpt: The results from tests on two different animal species, rat and dog, vary in regard to measured level of bioavailability for the same compound. We believe that the rat is the more relevant species for bioavailability testing. This is based on our belief that liver metabolism has the most predominant impact upon bioavailability, and that the liver metabolic pattern in man for this type of compounds is quite similar to that of the male rat (more so than of the female rat and the dog). Moreover, test results of bioavailability in the male rat will tend to give a broader "spread" compared with the test results in the dog, and thus the male rat model will give more clear differences in bioavailability between different compounds. Stated in another way, the bioavailability as tested in the male rat can be expected to give a better estimate of the relative differences in man between different test compounds compared with the test results obtained when using the same compounds in the dog.
(§1) Bioavailability is assessed by calculating the quotient between the area under plasma concentration (AUC) curve following intraduodenal (id) administration and intravenous (iv) administration from the rat or the dog. Low, therapeutically relevant doses, were used. This method is scientifically recognized as valid for assessing bioavailability (see for instance: M. Rowland and T. N. Tozer, Clinical Pharmacokinetics, 2nd ed., Lea & Febiger, London 1989, p 42).
Bioavailability in the Male Rat
Male adult rats of the Sprague-Dawley strain were used. One day, prior to the experiments, all rats were prepared by cannulation of the left carotid artery under anaesthesia. The rats used for the intravenous experiments, were also cannulated in the jugular vein. […]
The area under the blood concentration vs time curve, AUC, was determined by the linear trapezoidal rule and extrapolated to infinity by dividing the last determined blood concentration by the elimination rate constant in the terminal phase. The systemic bioavailability (F%) following intraduodenal administration was calculated as [formula]

gastric acid secretion [2] = test: Inhibition of Gastric Acid Secretion in the Conscious Dog; format: in vivo, Harrier dogs; conditions: for ED50: Canis lupus familiaris, dog, histamine-stimulated, acid output 2 h after dosing
Method: (§2) The potency for inhibition of acid secretion has been measured in the male rat and the dog, both intravenously and intraduodenally. When it comes to relevance of the animal test data for potency of a given compound in man for the present type of compounds, it is believed that potency in man will correspond to a level somewhere between what is measured in the male rat and what is measured in the dog.
(§3) Inhibition of Gastric Acid Secretion and Bioavailability in the Conscious Dog
(§4) Harrier dogs of either sex were used. They were equipped with a duodenal fistula for the administration of test compounds or vehicle and a cannulated ventricular fistula for the collection of gastric secretions.
Before secretory tests the animals were fasted for about 18 h but water was freely allowed. Gastric acid secretion was stimulated by a 4 h infusion of histamine dihydrochloride (12 ml/h) at a dose producing about 80% of the individual maximal secretory response, and gastric juice collected in consecutive 30-min fractions. Test substance or vehicle was given id or iv 1 h after starting the histamine infusion, in a volume of 0.5 ml/kg body weight. The acidity of the gastric juice samples were determined by titration to pH 7.0, and the acid output calculated. The acid output in the collection periods after administration of test substance or vehicle were expressed as fractional responses, setting the acid output in the fraction preceding administration to 1.0. Percentage inhibition was calculated from fractional responses elicited by test compound and vehicle. ED50 -values were obtained by graphical interpolation on log dose-response curves, or estimated from single-dose experiments under the assumption of the same slope of the dose-response curve for all test compounds. All results reported are based on acid output 2 h after dosing.

[3] = Chemical Stability at pH 7; format: physicochemical; conditions: pH 7, 37° C., aqueous buffer solution; for half-life: read-out: Chemical Stability at pH 7, half-life (t 1/2) (converted)
Method: The chemical stability of various compounds of the invention has been followed kinetically at low concentration at 37° C. in aqueous buffer solution at different pH values. The results in Table 3 show the half life (t1/2) at pH 7, that is the time period after which half the amount of the original compound remains unchanged.

[4] = Bioavailability in the Conscious Dog (AUC method); format: in vivo, Harrier dogs; conditions: plasma, id vs iv, AUCid/AUCiv, read-out: Bioavailability measured by the AUC-method, F %, Dog
Method: as §1, §3, §4
Blood samples for the analysis of test compound concentration in plasma were taken at intervals up to 3 h after dosing. Plasma was separated and frozen within 30 min after collection. AUC (area under the plasma concentration-time curve), extrapolated to infinite time, was calculated by the linear trapezoidal rule. The systemic bioavailability (F%) after id administration was calculated as 100×(AUCid /AUCiv).

gastric acid secretion [5] = test: Inhibition of Gastric Acid Secretion in the Conscious Male Rat; format: in vivo, male rats of the Sprague-Dawley strain; conditions: 2 h, pentagastrin and carbachol stimulation, second hour after administration
Method: (§5) Since the bioavailability model described above is time and labour intensive, and requires a large number of plasma analyses, also a rough screening model, based on relative potencies to inhibit acid secretion, has been used (see for instance: A. Goth, Medical Pharmacology, 7th ed., C. V. Mosby Company, Saint Louis 1974, p 19). Thus, the ratio (called "Bioavailability" in Table 3) between the ED50 at intravenous administration and the ED50 at intraduodenal administration was calculated.
as §2
(§6) Inhibition of Gastric Acid Secretion in the Conscious Male Rat
(§7) Male rats of the Sprague-Dawley strain were used. They were equipped with cannulated fistulae in the stomach (lumen) and the upper part of the duodenum, for collection of gastric secretions and administration of test substances, respectively. A fourteen days recovery period after surgery was allowed before testing commenced.
(§8) Before secretory tests, the animals were deprived of food but not water for 20 h. The stomach was repeatedly washed through the gastric cannula, and 6 ml of Ringer-Glucose given s.c. Acid secretion was stimulated with a infusion during 3.5 h (1.2 ml/h, s.c.) of pentagastrin and carbachol (20 and 110 nmol/kg h, respectively), during which time gastric secretions were collected in 30-min fractions. Test substances or vehicle were given iv or id at 90 min after starting the stimulation, in a volume of 1 ml/kg. Gastric juice samples were titrated to pH 7.0 with NaOH, 0.1 mol/L, and acid output calculated as the product of titrant volume and concentration. Further calculations were based on group mean responses from 4-5 rats. The acid output during the periods after administration of test substances or vehicle were expressed as fractional responses, setting the acid output in the 30-min period preceding administration to 1.0. Percentage inhibition was calculated from the fractional responses elicited by test compound and vehicle. ED50 -values were obtained from graphical interpolation on log dose-response curves, or estimated from single-dose experiments assuming a similar slope for all dose-response curves. An estimation of the bioavailability was obtained by calculating the ratio ED50 iv/ED50 id. The results reported are based on gastric acid secretion during the second hour after drug/vehicle administration.

[6] = as above; format: in vivo, male rats of the Sprague-Dawley strain; conditions: in vivo, ratio ED50 iv/ED50 id, read-out: "Bioavailability" measured by the Rough Screening Model, Rat ED50 iv/ED50 id
Method: as §5, §2, §6, §7, §8

[7] = id, read-out: Inhibition of acid secretion, Rat ED50, id
[8] = iv, read-out: Inhibition of acid secretion, Rat ED50, iv

## COc1ccnc(C[S+]([O-])c2nc3c(F)cccc3[nH]2)c1 (stereo not drawn) [Example 1, 4-fluoro-2-[[(4-methoxy-2-pyridinyl)methyl]sulfinyl]-1H-benzimidazole]
[1]
  bioavailability: 96%
Gastric acid secretion [2]; id, read-out: Inhibition of acid secretion, Dog ED50, id
  ED50: 0.9 µmol/kg
Gastric acid secretion [2]; iv, read-out: Inhibition of acid secretion, Dog ED50, iv
  ED50: 0.8 µmol/kg
[3]
  Chemical Stability at pH 7, half-life (t 1/2): 23 h
  half-life: 23 h
[4]
  bioavailability: 95%
Gastric acid secretion [5]; [7]
  ED50: 2.4 µmol/kg
Gastric acid secretion [5]; [8]
  ED50: 0.96 µmol/kg
[6]
  bioavailability: 40%

## CC(C)Oc1ccnc(C[S+]([O-])c2nc3cc(F)ccc3[nH]2)c1 (stereo not drawn) [Ref., 5-fluoro-2-[[(4-isopropoxy-2-pyridinyl)methyl]-sulfinyl]-1H-benzimidazole]
[1]
  bioavailability: 31%
  Bioavailability measured by the AUC-method, F %, Rat: 31%
Gastric acid secretion [2]; Dog 1, 3 μmol/kg, id
  inhibition (of acid secretion), Dog 1: 95%
Gastric acid secretion [2]; Dog 2, 3 μmol/kg, id
  inhibition (of acid secretion), Dog 2: 98%
[3]
  Chemical Stability at pH 7, half-life (t 1/2): 14 h
  half-life: 14 h
Gastric acid secretion [5]; [7]
  ED50: 4 µmol/kg
Gastric acid secretion [5]; [8]
  ED50: 1.8 µmol/kg
[6]
  bioavailability: 45%
